Patent US11053242B2, “[9,10-dimethoxy-3-(2-methylpropyl)-1H,2H,3H,4H,6H,7H,11BH-pyrido-[2,1-a]isoquinolin-2-yl]methanol and compounds, compositions and methods relating thereto” (Neurocrine Biosciences, Inc., priority 2015, dated 2021)

Assays:
[1] = test system: vesicular monoamine transporter-2 (VMAT2); conditions: inhibition of catecholamine uptake by VMAT2, Scherman et al. 1983; cited from earlier work
[2] = target: VMAT2 (rat forebrain homogenate) (Rattus norvegicus (Rat), UniProt Q01827); conditions: radioligand of the VMAT2 binding assay; cited from earlier work
[3] = Metabolic pathways in human hepatocytes (fraction metabolized); format: in vitro ADME; conditions: LC-MS/MS of metabolites
Procedure: To investigate differences in the metabolism of Compound 1-1 and R,R,R-DHTBZ in vitro both compounds were incubated with human hepatocytes and the amounts of metabolites formed via the respective demethylation, oxidation, and glucuronidation pathways were determined by LC-MS/MS. The instrument responses for all metabolites were assumed to be approximately equal. For both compounds the percentage of overall in vitro metabolism due to the respective pathways (fraction metabolized, fm) was calculated by dividing the LC/MS peak area of the metabolite(s) formed via a given pathway by the sum of the peak areas of all metabolites monitored. […] This demethylation is believed to be catalyzed by CYP2D6.

[4] = target: VMAT2 (human platelet homogenate) (Homo sapiens (Human), UniProt Q05940); test: Human VMAT2 Ki, slightly modified competition binding procedure (Table 11); conditions: 10 nM 3H-dihydrotetrabenazine;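 further: competition binding with 90 min incubation at 25 °C, after which filter-retained radioligand was measured by scintillation counting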
[5] = In vitro human intestinal S9 hydrolysis assay (formation of compound 1-1); conditions: human intestinal S9, 1 uM, 37° C., up to 60 minutes

VMAT2 (human platelet homogenate), sequence (Q05940 whole entry): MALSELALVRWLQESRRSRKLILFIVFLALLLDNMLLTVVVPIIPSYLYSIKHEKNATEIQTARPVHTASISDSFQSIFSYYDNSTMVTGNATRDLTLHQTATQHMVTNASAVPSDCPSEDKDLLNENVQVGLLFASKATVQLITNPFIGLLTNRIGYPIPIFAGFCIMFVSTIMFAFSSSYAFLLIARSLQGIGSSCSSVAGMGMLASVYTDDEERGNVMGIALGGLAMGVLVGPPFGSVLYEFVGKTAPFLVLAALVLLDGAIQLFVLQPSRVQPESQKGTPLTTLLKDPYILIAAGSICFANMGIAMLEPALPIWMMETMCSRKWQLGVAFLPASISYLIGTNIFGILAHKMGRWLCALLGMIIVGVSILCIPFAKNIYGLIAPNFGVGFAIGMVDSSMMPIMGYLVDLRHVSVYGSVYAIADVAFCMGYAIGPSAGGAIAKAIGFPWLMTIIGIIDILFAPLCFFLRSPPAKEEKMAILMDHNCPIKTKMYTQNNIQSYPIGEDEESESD
VMAT2 (rat forebrain homogenate), sequence (Q01827 whole entry): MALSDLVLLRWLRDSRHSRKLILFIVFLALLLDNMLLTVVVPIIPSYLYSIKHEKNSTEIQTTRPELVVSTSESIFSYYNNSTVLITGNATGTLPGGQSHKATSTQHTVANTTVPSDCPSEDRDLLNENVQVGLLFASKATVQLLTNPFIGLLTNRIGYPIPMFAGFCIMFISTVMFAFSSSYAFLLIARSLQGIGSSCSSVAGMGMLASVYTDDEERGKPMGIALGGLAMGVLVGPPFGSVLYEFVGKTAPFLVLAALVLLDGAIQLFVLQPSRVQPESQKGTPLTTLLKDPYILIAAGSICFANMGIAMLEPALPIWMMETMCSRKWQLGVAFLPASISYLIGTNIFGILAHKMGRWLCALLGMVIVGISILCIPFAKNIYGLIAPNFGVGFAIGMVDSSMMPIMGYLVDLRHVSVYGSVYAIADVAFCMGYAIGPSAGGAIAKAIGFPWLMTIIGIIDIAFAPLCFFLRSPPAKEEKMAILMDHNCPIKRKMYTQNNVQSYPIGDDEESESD

Compound: ^3H-dihydrotetrabenezine
- Kd [2]: 2.6 nM

Compound: COc1cc2c(cc1OC)[C@H]1C[C@@H](CO)[C@H](CC(C)C)CN1CC2 [Compound 1-1, [(2R,3S,11bR)-9,10-Dimethoxy-3-(2-methylpropyl)-1H,2H,3H,4H,6H,7H,11bH-pyrido[2,1-a]isoquinolin-2-yl]methanol]
- primary metabolic pathway [3]: primarily metabolized by glucuronidation

Compound: COc1cc2c(cc1OC)C1CC(O)C(CC(C)C)CN1CC2 [R,R,R-DHTBZ, 3-isobutyl-9,10-dimethoxy-1,3,4,6,7,11b-hexahydro-2H-pyrido[2,1-a]isoquinolin-2-ol, reference compound]
- primary metabolic pathway [3]: primarily metabolized by demethylation

Compound: COc1cc2c(cc1OC)[C@H]1C[C@@H](COC(=O)N3CC(C(=O)O)C3)[C@H](CC(C)C)CN1CC2 [Compound 5-27, 1-({[(2R,3S,11bR)-9,10-dimethoxy-3-(2-methylpropyl)-1H,2H,3H,4H,6H,7H,11bH-pyrido[2,1-a]isoquinolin-2-yl]methoxy}carbonyl)azetidine-3-carboxylic acid]
- Ki [4]: > 500 nM
- S9 Assay (ability to form compound 1-1) [5]: +
